The structures appear in SMILES notation.

Series [1] can be described thus: Dissociation constant, pKa of the compound by pressure-assisted capillary electrophoretic method. The series is classed as physicochemical.
A further series is described as follows: in vitro. The settings on record: human, Caco-2.
A short description of series [2]: Ratio of free drug concentration in brain to free drug concentration in plasma in C57BL/6 mouse at 30 umol/kg, iv at […]. The following applies: brain and plasma, read-out: K(p,uu,brain). The series is classed as ADME, organism-based.
Series [3] concerns Brain. The experiment in a line: Free drug concentration in C57BL/6 mouse brain at 30 umol/kg, iv at […]. The settings on record: in vivo. It is filed as ADME, organism-based.
Series [4] can be described thus: Drug uptake in C57BL/6 mouse brain at 30 umol/kg, iv at […]. It is filed as ADME, organism-based. The following applies: read-out: Drug uptake.
Series [5] relates to Plasma. The experiment in a line: Free plasma concentration in C57BL/6 mouse at 30 umol/kg, iv at […]. The series is classed as ADME, organism-based. The settings on record: in vivo.
A short description of series [6]: Plasma concentration in C57BL/6 mouse at 30 umol/kg, iv at […]. It is filed as ADME, organism-based.
The test system of series [7] is Plasma. The experiment in a line: Free plasma concentration in C57BL/6 mouse at 100 umol/kg, po at […]. The settings on record: in vivo. The series is classed as ADME, organism-based.
Series [8] can be described thus: Ratio of free drug concentration in brain to free drug concentration in plasma in guinea pig. The following applies: brain and plasma, read-out: K(p,uu,brain). The series is classed as ADME, Cavia porcellus.
Series [9] in a line: Drug uptake in C57BL/6 mouse brain at 100 umol/kg, po at […]. The series is classed as ADME, organism-based. The settings on record: read-out: Drug uptake.
Series [10] relates to Brain. The experiment in a line: Free drug concentration in C57BL/6 mouse brain at 100 umol/kg, po at […]. It is filed as ADME, organism-based. The following applies: in vivo.
A short description of series [11]: Plasma concentration in C57BL/6 mouse at 100 umol/kg, po at […]. The series is classed as ADME, organism-based.
Series [12] can be described thus: Ratio of free drug concentration in brain to free drug concentration in plasma in C57BL/6 mouse at 100 umol/kg, po at […]. The series is classed as ADME, organism-based. The following applies: brain and plasma, read-out: K(p,uu,brain).
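For logD in this document: lipophilicity determined by reversed-phase HPLC.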

In general, logD refers to lipophilicity at a set pH, counting ionised and neutral species. The low end stands for lower lipophilicity, the high end for higher lipophilicity. Usually pKa stands for the negative logarithm of the acid dissociation constant. A high value points to a weaker acid or stronger base. The term Papp A→B denotes how fast a substance crosses the layer from the apical side. Molecule `CC(C)C1=NC(c2ccccc2)(c2cccc(-c3cncnc3)c2)N=C1N` (configuration not stated) had a logD in “physchem” of 2.4. Also, the pKa in series [1] was 5.2. This molecule also registered a Papp A→B at 10 µM in “in vitro” of 30 ×10⁻⁶ cm/s.

For `CC#Cc1cncc(-c2cccc(C3(c4cc(C)c(OC)c(C)c4)N=C(C)C(N)=N3)c2)c1` (configuration not stated), in the series “physchem”, the logD came out at 3.7. In the series “in vitro”, the Papp A→B at 10 µM is 12 ×10⁻⁶ cm/s.

`COc1ccc(C2(c3cccc(-c4cncnc4)c3)N=C(N)C(C(C)C)=N2)cc1` (configuration not stated): the logD in the series “physchem” was 2.4. The same molecule displayed a pKa in [1] of 5.3. This molecule also showed a Papp A→B at 10 µM in the series “in vitro” of 30 ×10⁻⁶ cm/s.

`CC1(c2cccc(-c3cccnc3)c2)N=C(N)C(c2ccccc2)=N1` (configuration not stated) showed a logD in “physchem” of 2.1. Also, the pKa in series [1] is 5.4. In the series “in vitro”, the Papp A→B at 10 µM worked out at 46 ×10⁻⁶ cm/s.

As for `CC#Cc1cncc(-c2cc(C3(C4CC4)N=C(C)C(N)=N3)ccc2O)c1` (configuration not stated), the logD in “physchem” came to 1.2. Further, the pKa in series [1] turned out to be 5.9. In the series “in vitro”, this molecule registered a Papp A→B at 10 µM of 2 ×10⁻⁶ cm/s.

In turn, `COc1cccc(-c2cccc(C3(c4ccncc4)N=C(C)C(N)=N3)c2)c1` (configuration not stated) gave a Papp A→B at 10 µM in “in vitro” of 40 ×10⁻⁶ cm/s.

Molecule `COc1cccc(-c2cccc(C3(C4CCOCC4)N=C(C)C(N)=N3)c2)c1` (configuration not stated) came in with a logD in “physchem” of 2.5. This molecule returned a pKa in [1] of 6. Besides, the Papp A→B at 10 µM in the series “in vitro” turned out to be 22 ×10⁻⁶ cm/s.

The molecule `COc1c(C)cc(C2(c3cccc(-c4cncnc4)c3)N=C(C)C(N)=N2)cc1C` (configuration not stated) registered a logD in “physchem” of 1.9. In series [1], this molecule displayed a pKa of 5.3. This molecule also displayed a Papp A→B at 10 µM in “in vitro” of 28 ×10⁻⁶ cm/s.

On to `COc1ccc(C2(c3cccc(-c4cncnc4)c3)N=C(C)C(N)=N2)cc1` (configuration not stated), for which, in the series “physchem”, the logD was found to be 1.1. In addition, the pKa in series [1] turned out to be 5.2. For the same molecule, the Papp A→B at 10 µM in “in vitro” amounted to 21 ×10⁻⁶ cm/s.

For the molecule `COc1ccc(C2(c3cccc(-c4cccnc4)c3)N=C(C)C(N)=N2)cc1` (configuration not stated), the Kp uu at […] in series [2] stood at 0.08. This molecule displayed a log distribution coefficient (logD) in the series “physchem” of 1.7. Moreover, the “Drug uptake(free)” value in the series with Brain [3] stood at 54 nmol/L. The pKa in [1] turned out to be 5.7. Besides, the concentration at […] in series [4] amounted to 710 nM; in series [6], 11500 nM. Also, the “Cp(f)” value in the series with Plasma [5] turned out to be 720 nM. The Papp A→B at 10 µM in “in vitro” was found to be 28 ×10⁻⁶ cm/s.

On to `COc1ccc(C2(c3cccc(-c4cncnc4)c3)N=C(C)C(N)=N2)cc1C` (configuration not stated), for which the logD in the series “physchem” stood at 1.7. Besides, in “in vitro”, the Papp A→B at 10 µM came to 19 ×10⁻⁶ cm/s.

`COc1c(C)cc([C@@]2(c3cccc(-c4cncnc4)c3)N=C(C)C(N)=N2)cc1C`: in the series on Plasma [7], the “Cp(f)” value was 490 nM. Besides, the Kp uu in series [8] is 0.16. In “physchem”, this molecule had a logD of 1.8. The concentration at […] in series [9] worked out at 230 nM; in [11] it was 4500 nM. Besides, the pKa in series [1] was determined as 5.2. Further, the “Drug uptake(free)” value with Brain [10] amounted to 19 nmol/L. In addition, the Kp uu at […] in series [12] came out at 0.05. The same molecule returned an apparent permeability from apical to basolateral (Papp A→B) at 10 µM in the series “in vitro” of 22 ×10⁻⁶ cm/s.

`CC#Cc1ccnc(-c2cc(C3(C4CC4)N=C(C)C(N)=N3)ccc2O)c1` (configuration not stated) gave a logD in the series “physchem” of 2.9. The same molecule displayed a Papp A→B at 10 µM in the series “in vitro” of 19 ×10⁻⁶ cm/s.

With `CC1=NC(c2cccc(-c3cccnc3)c2)(C2CCCCC2)N=C1N` (configuration not stated), the logD in “physchem” came out at 2.6. Besides, in series [1], the pKa came to 6.2. In “in vitro”, the Papp A→B at 10 µM worked out at 41 ×10⁻⁶ cm/s.

Turning to `COc1c(C)cc([C@]2(c3cccc(-c4cncnc4)c3)N=C(C)C(N)=N2)cc1C`, in “physchem”, the logD is 1.8. The molecule further displayed a Papp A→B at 10 µM in “in vitro” of 21 ×10⁻⁶ cm/s.

In “physchem”, `CC1=N[C@@](Cc2ccccc2)(c2cccc(-c3cncnc3)c2)N=C1N` came in with a logD of 1.2. In addition, the pKa in series [1] was 6. The same molecule gave a Papp A→B at 10 µM in “in vitro” of 31 ×10⁻⁶ cm/s.

In [1], `COc1cccc(-c2cccc(C3(C4CCN(C(C)=O)CC4)N=C(C)C(N)=N3)c2)c1` (configuration not stated) displayed a pKa of 5.7.

Molecule `CC1=NC(C)(c2cccc(-c3cccnc3)c2)N=C1N` (configuration not stated) showed a logD in the series “physchem” of 0.2. The molecule also showed a pKa in series [1] of 6.7. In the series “in vitro”, this molecule yielded a Papp A→B at 10 µM of 30 ×10⁻⁶ cm/s.

Take `CC1=NC(c2ccc(F)cc2)(c2cccc(-c3cccnc3)c2)N=C1N` (configuration not stated): the logD in “physchem” is 2. In addition, the pKa in series [1] was 4.9. The same molecule gave a Papp A→B at 10 µM in “in vitro” of 41 ×10⁻⁶ cm/s.

As to `COc1cccc(-c2cccc(C3(C)N=C(C)C(N)=N3)c2)c1` (configuration not stated), in the series “physchem”, the logD came to 2.2. The pKa in series [1] was 6.5. This molecule gave a Papp A→B at 10 µM in “in vitro” of 34 ×10⁻⁶ cm/s.

For `CC1=NC(c2cccc(-c3cncc(Cl)c3)c2)(C2CC2)N=C1N` (configuration not stated), the Kp uu at […] in [2] worked out at 0.16. In addition, the logD in the series “physchem” was found to be 2. Further, in the series on Brain [3], the “Drug uptake(free)” value was 9 nmol/L. Further, the figures for the concentration at […] in series [4] and in [6] were 180 nM and 1200 nM, respectively. Besides, the “Cp(f)” value in the series with Plasma [5] turned out to be 60 nM. Besides, the Papp A→B at 10 µM in the series “in vitro” came out at 57 ×10⁻⁶ cm/s.

`CC1=NC(c2ccccc2)(c2cccc(-c3cccnc3)c2)N=C1N` (configuration not stated) had a logD in the series “physchem” of 1.8.

Consider `CC#Cc1cncc(-c2cccc(C3(C4CC4)N=C(C)C(N)=N3)c2)c1` (configuration not stated), for which the Kp uu at […] in series [2] turned out to be 0.07. Besides, the logD in “physchem” is 2.3. For the same molecule, in the series on Brain [3], the “Drug uptake(free)” value amounted to 21 nmol/L. In series [1], the pKa was found to be 5.8. In addition, the concentration at […] in [4] is 980 nM; in series [6] it was 3700 nM. Also, in the series on Plasma [5], the “Cp(f)” value stood at 310 nM. In addition, the Papp A→B at 10 µM in “in vitro” came out at 27 ×10⁻⁶ cm/s.

For `CC(C)C1=NC(C)(c2cccc(-c3cccnc3)c2)N=C1N` (configuration not stated), the logD in “physchem” is 1.1. Besides, the pKa in [1] turned out to be 5.9. In the series “in vitro”, this molecule returned a Papp A→B at 10 µM of 38 ×10⁻⁶ cm/s.

Values taken from ChEMBL document CHEMBL2177046, “New aminoimidazoles as β-secretase (BACE-1) inhibitors showing amyloid-β (Aβ) lowering in brain” (J Med Chem, 2012).
